Experimental findings from patent US20110052612A1, “SPIROPIPERIDINE COMPOUND AND MEDICINAL USE THEREOF” (ONO PHARMACEUTICAL CO., LTD., priority 2005, published 2011) are described below.

For this assay, the target named is T1, human CXCR3 (Homo sapiens, UniProt P49682).
T1 construct: expressed in transfected cells
T1 sequence (P49682 1-368): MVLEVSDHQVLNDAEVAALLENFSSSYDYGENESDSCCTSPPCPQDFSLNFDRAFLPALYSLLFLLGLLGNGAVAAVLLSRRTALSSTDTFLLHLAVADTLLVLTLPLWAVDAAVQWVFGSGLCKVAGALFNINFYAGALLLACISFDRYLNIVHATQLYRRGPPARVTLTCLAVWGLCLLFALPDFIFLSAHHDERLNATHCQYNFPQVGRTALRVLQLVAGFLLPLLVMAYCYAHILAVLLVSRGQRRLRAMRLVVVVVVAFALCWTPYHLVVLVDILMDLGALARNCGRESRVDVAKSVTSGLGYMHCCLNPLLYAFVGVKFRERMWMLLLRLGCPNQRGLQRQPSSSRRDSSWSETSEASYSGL
Kind of assay: Inhibition of IP-10-induced transient Ca2+ rise in CXCR3/CHO cells. To be noted: human IP-10 30 nM. The class given is cell-based. As to the method: An Inhibitory Experiment Against the Binding of IP-10 and CXCR3 (the Activity of that Ca Ion (Ca^2+) is Raised in Transient and Induced by IP-10)
The CHO cell (CXCR3/CHO cell) which overexpresses human CXCR3 in stable was suspended with Ham's F-12 culture medium and FBS (10%), was rolled up in 96well plate to become 3.0×10^4 cell/well. After the plate was incubated for one day at 37° C., removed the cultural supernatant, added Ham's F-12 culture media (Fura-2AM (5 μM), Probenecid (2.5 mM) and HEPES (20 mM; pH7.4) were included) to 80 μl/well, incubated for one hour at 37° C. in light exclusion state. […] The transient rise of the intracellular Ca^2+ concentration induced by human IP-10 was measured by means of Ca^2+ detector for 96well (made in Hamamatsu Photonics), and the inhibitory rate (%) of the test compound was calculated by the following calculation formula.
Ec: The measured value of the Ca^2+ transient rise induced by IP-10 Ea: The measured value of the Ca^2+ transient rise induced by IP-10 when a test compound was added

On to `O=C1C(Cc2ccccc2)CCC2(CCN(Cc3ccc(Cl)cc3)CC2)N1CC1CC1` (stereo not shown) [Example 15, 3-benzyl-9-(4-chlorobenzyl)-1-(cyclopropylmethyl)-1,9-diazaspiro[5.5]undecan-2-one], for which the half-maximal inhibitory concentration (IC50) was determined as 1.1 µM.

Regarding `CCCCN1CCC2(CCN(Cc3ccc(Cl)cc3)CC2)N(C2CCCC2)C1=O` [Example 11, 3-butyl-9-(4-chlorobenzyl)-1-cyclopentyl-1,3,9-triazaspiro[5.5]undecan-2-one], the half-maximal inhibitory concentration (IC50) was found to be 2.1 µM.

`C#CCOc1ccc(CN2CCC3(CCCCC3)CC2)cc1` [Example 5, 3-[4-(prop-2-yn-1-yloxy)benzyl]-3-azaspiro[5.5]undecane] gave an IC50 of 3.2 µM.

Regarding `CCCN1C(=O)N(CCc2ccccc2)C=CC12CCN(Cc1ccc(Cl)cc1)CC2` [Example 9, 9-(4-chlorobenzyl)-3-(2-phenylethyl)-1-propyl-1,3,9-triazaspiro[5.5]undec-4-en-2-one], the IC50 was determined as 3.4 µM.

As usually defined, the IC50 is the midpoint of a concentration-inhibition curve. A higher IC50 goes with a need for much substance.
